Data: PubChem BioAssay (NCI)
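Cells were grown in 96-well plates and exposed to each compound for 48 hours at five concentrations; endpoints were interpolated linearly between bracketing concentrations, or set to the highest concentration if not reached. At the GI50, growth is halved. TGI denotes the concentration required for complete inhibition of growth.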

Tests used:
Assay in all cases: NCI tumour cell line growth inhibition, 48 h
CCRF-CEM leukemia = tested on: CCRF-CEM leukemia
MDA-MB-435 = tested on: MDA-MB-435
A549 NSCLC = tested on: A549 NSCLC
SNB-75 CNS = tested on: SNB-75 CNS
DU-145 prostate = tested on: DU-145 prostate
RPMI-8226 leukemia = tested on: RPMI-8226 leukemia
MALME-3M melanoma = tested on: MALME-3M melanoma
A498 renal = tested on: A498 renal
SF-295 CNS = tested on: SF-295 CNS
LOX IMVI melanoma = tested on: LOX IMVI melanoma
SK-MEL-2 melanoma = tested on: SK-MEL-2 melanoma
SW-620 colon = tested on: SW-620 colon
NCI-H460 lung = tested on: NCI-H460 lung
CAKI-1 renal = tested on: CAKI-1 renal
NCI-H226 lung = tested on: NCI-H226 lung
RXF 393 renal = tested on: RXF 393 renal
K-562 leukemia = tested on: K-562 leukemia
HCT-116 colon = tested on: HCT-116 colon
OVCAR-8 ovarian = tested on: OVCAR-8 ovarian
HCC-2998 colon = tested on: HCC-2998 colon
ACHN renal = tested on: ACHN renal
MOLT-4 leukemia = tested on: MOLT-4 leukemia
HS 578T breast = tested on: HS 578T breast
NCI-H23 lung = tested on: NCI-H23 lung
MDA-MB-231 breast = tested on: MDA-MB-231 breast
SNB-19 CNS = tested on: SNB-19 CNS
OVCAR-3 ovarian = tested on: OVCAR-3 ovarian
KM12 colon = tested on: KM12 colon

COc1ccc(/C(C)=C(\c2ccc(Cl)cc2)c2ccc(OCCN3CCCCC3)cc2)cc1
GI50 (CCRF-CEM leukemia): 3.05 µM | TGI (CCRF-CEM leukemia): 14.4 µM | GI50 (MDA-MB-435): 3.93 µM | TGI (MDA-MB-435): 8.56 µM | GI50 (A549 NSCLC): 4.51 µM | TGI (A549 NSCLC): 10.2 µM | GI50 (SNB-75 CNS): 4.11 µM | TGI (SNB-75 CNS): 10.6 µM | GI50 (DU-145 prostate): 8.29 µM | TGI (DU-145 prostate): 26.6 µM | GI50 (RPMI-8226 leukemia): 1.44 µM | TGI (RPMI-8226 leukemia): 6.64 µM | GI50 (MALME-3M melanoma): 4.01 µM | TGI (MALME-3M melanoma): 8.49 µM | GI50 (A498 renal): 4.73 µM | TGI (A498 renal): 10.4 µM | GI50 (SF-295 CNS): 2.97 µM | TGI (SF-295 CNS): 7.54 µM | GI50 (LOX IMVI melanoma): 1.89 µM | TGI (LOX IMVI melanoma): 6.2 µM | GI50 (SK-MEL-2 melanoma): 5.85 µM | TGI (SK-MEL-2 melanoma): 10.7 µM | GI50 (SW-620 colon): 3.34 µM | TGI (SW-620 colon): 8.09 µM | GI50 (NCI-H460 lung): 4.15 µM | TGI (NCI-H460 lung): 9.34 µM | GI50 (CAKI-1 renal): 5.23 µM | TGI (CAKI-1 renal): 12.4 µM | GI50 (NCI-H226 lung): 4.85 µM | TGI (NCI-H226 lung): 9.7 µM | GI50 (RXF 393 renal): 2.5 µM | TGI (RXF 393 renal): 7.29 µM | GI50 (K-562 leukemia): 1.28 µM | TGI (K-562 leukemia): 10.4 µM | GI50 (HCT-116 colon): 1.46 µM | TGI (HCT-116 colon): 5.24 µM | GI50 (OVCAR-8 ovarian): 5.64 µM | TGI (OVCAR-8 ovarian): 11.8 µM | GI50 (HCC-2998 colon): 3.84 µM | TGI (HCC-2998 colon): 8.1 µM | GI50 (ACHN renal): 5.13 µM | TGI (ACHN renal): 9.61 µM | GI50 (MOLT-4 leukemia): 4.1 µM | TGI (MOLT-4 leukemia): 19.5 µM | GI50 (HS 578T breast): 5.16 µM | TGI (HS 578T breast): 13.3 µM | GI50 (NCI-H23 lung): 4.34 µM | TGI (NCI-H23 lung): 10.2 µM | GI50 (MDA-MB-231 breast): 4.58 µM | TGI (MDA-MB-231 breast): 9.22 µM | GI50 (SNB-19 CNS): 5.32 µM | TGI (SNB-19 CNS): 12.6 µM | GI50 (OVCAR-3 ovarian): 5.26 µM | TGI (OVCAR-3 ovarian): 11 µM | GI50 (KM12 colon): 2.72 µM | TGI (KM12 colon): 16 µM
